What is called IC50 is the concentration that inhibits the measured activity by half.

3 molecules from ChEMBL document CHEMBL1687731, “Reverse transcriptase inhibitors as potential colorectal microbicides” (Antimicrob Agents Chemother, 2009) can be followed below.

Data set [1] has as its system Human immunodeficiency virus 1. In words: Antiviral activity against X4 tropic HIV1 NL4.3 infected in human TZM-b1 cells after 2 hrs by luciferase assay. The data set is classed as functional, organism-based. As to conditions: Human immunodeficiency virus 1, NL4.3, TZM-b1, 2 h.
Data set [2] concerns Human immunodeficiency virus 1. In words: Antiviral activity against X4 tropic HIV1 RF infected in human PBMC assessed as inhibition of p24 antigen production after 2 hrs by ELISA. As to conditions: Human immunodeficiency virus 1, RF. It counts as functional, organism-based.
Data set [3] relates to Human immunodeficiency virus 1. In words: Antiviral activity against HIV1 isolate 71361-1 harboring reverse transcriptase K65R mutant infected in human TZM-b1 cells after 2 hrs by luciferase assays. The data set is classed as functional, organism-based.
Data set [4] deals with Human immunodeficiency virus 1. Briefly: Antiviral activity against R5 tropic HIV1 R8.BaL infected in human PBMC assessed as inhibition of p24 antigen production after 2 hrs by ELISA. As to conditions: Human immunodeficiency virus 1, R8.BaL. The data set is classed as functional, organism-based. On the technique in general: An ELISA detects its analyte on a solid surface through an enzyme-linked reagent.

Data set [5] deals with Human immunodeficiency virus 1. Briefly: Antiviral activity against X4 tropic HIV1 RF infected in human TZM-b1 cells after 2 hrs by luciferase assay. The data set is classed as functional, organism-based. To be noted: Human immunodeficiency virus 1, RF, TZM-b1, 2 h.
For data set [6], the system named is Human immunodeficiency virus 1. Briefly: Antiviral activity against R5 tropic HIV1 BaL infected in human TZM-b1 cells after 2 hrs by luciferase assay. As to conditions: Human immunodeficiency virus 1, BaL, TZM-b1, 2 h. It counts as functional, organism-based.
Data set [7] relates to Human immunodeficiency virus 1. Briefly: Antiviral activity against X4 tropic HIV1 3B infected in human TZM-b1 cells after 2 hrs by luciferase assay. It counts as functional, organism-based. As to conditions: Human immunodeficiency virus 1, 3B, TZM-b1, 2 h.
For data set [8], the system named is Human immunodeficiency virus 1. In words: Ratio of IC50 for wild type HIV1 to IC50 for HIV1 A17 harboring reverse transcriptase K103N, Y181C mutant. It counts as functional.
The subject of data set [9] is Human immunodeficiency virus 1. Briefly: Antiviral activity against R5 tropic HIV1 R8.BaL infected in human TZM-b1 cells after 2 hrs by luciferase assay. As to conditions: Human immunodeficiency virus 1, R8.BaL, TZM-b1, 2 h. The data set is classed as functional, organism-based.
For another data set, the system named is PBMC. Briefly: Cytotoxicity against human PBMC by MTT assay. The data set is classed as cell-based.
For data set [10], the system named is Human immunodeficiency virus 1. Briefly: Antiviral activity against HIV1 A17 harboring reverse transcriptase K103N, Y181C mutant infected in human TZM-b1 cells after 2 hrs by luciferase assays. It counts as functional, organism-based.
Data set [11] is described as follows: Cytotoxicity against human TZM-bl cells by MTT assay. The data set is classed as cell-based.
Data set [12] deals with Human immunodeficiency virus 1. Briefly: Antiviral activity against R5 tropic HIV1 YU.2 infected in human PBMC assessed as inhibition of p24 antigen production after 2 hrs by ELISA. It counts as functional, organism-based. To be noted: Human immunodeficiency virus 1, YU.2, 2 h.
In data set [13] the test system is Human immunodeficiency virus 1. Briefly: Antiviral activity against X4 tropic HIV1 NL4.3 infected in human PBMC assessed as inhibition of p24 antigen production after 2 hrs by ELISA. It counts as functional, organism-based. To be noted: Human immunodeficiency virus 1, NL4.3, 2 h.
For data set [14], the system named is Human immunodeficiency virus 1. In words: Antiviral activity against R5 tropic HIV1 YU.2 infected in human TZM-b1 cells after 2 hrs by luciferase assay. The data set is classed as functional, organism-based. To be noted: Human immunodeficiency virus 1, YU.2, TZM-b1, 2 h.
The test system of data set [15] is Human immunodeficiency virus 1. Briefly: Antiviral activity against HIV1 isolate 8415-2 harboring reverse transcriptase K65R mutant co-expressing M184V mutant infected in human TZM-b1 cells after 2 hrs by luciferase assays. It counts as functional, organism-based. To be noted: Human immunodeficiency virus 1, isolate 8415-2, TZM-b1, 2 h.

Molecules are shown by their SMILES. Active and inactive are the calls of the source. The rule behind the calls is not given here.

Turning to `Cc1cc(C)c(Nc2ccnc(Nc3ccc(C#N)cc3)n2)c(C)c1` [DAPIVIRINE], the IC50 came out at 0.37 nM in data set [1]; 1.48 nM in [2]; 1.09 nM in [4]; 0.84 nM in data set [5]; 0.8 nM in [6]; 0.53 nM in data set [7]. Besides, the IC50 is 0.19 nM in data set [9]; 8.34 nM in [10] (Human immunodeficiency virus 1, A17, TZM-b1, 2 h); 1.11 nM in data set [12]; 1.15 nM in [13]; 0.15 nM in data set [14]. The result in data set [3] was inactive. Further, the “Ratio IC50” value in data set [8] amounted to 17. Also, the Activity result (in the data set with PBMC; in [11]) was “Non-toxic” in each case.

For `C[C@H](Cn1cnc2c(N)ncnc21)OCP(=O)(O)O` [TENOFOVIR ANHYDROUS], the IC50 in data set [1] is 6690 nM; in data set [15], 820 nM; in data set [2] it was 1600 nM; in data set [3] (Human immunodeficiency virus 1, isolate 71361-1, TZM-b1, 2 h) it was more than 30 µM; in [4], 1010 nM; in data set [5], 4030 nM. For the same molecule, the IC50 was found to be 2520 nM in data set [6]; 2300 nM in data set [7]; 4590 nM in data set [9]; 884 nM in data set [12]; 1400 nM in data set [13]; 3340 nM in data set [14]. Moreover, the Activity entry (with PBMC; in [11]) was “Non-toxic” each time.

Turning to `CC(C)=CCOc1cc(NC(=S)c2ccoc2C)ccc1Cl` [UC 781], the IC50 in data set [1] was found to be 10.2 nM; in data set [2], 9.2 nM; in [4], 10.2 nM; in data set [5], 6.01 nM; in data set [6] it was 9.34 nM; in data set [7] it was 7.99 nM. The IC50 in data set [9] worked out at 5.86 nM; in [12], 11.2 nM; in data set [13] it was 17.6 nM; in data set [14], 5.87 nM. Moreover, the Activity entry (in the data set with PBMC; in data set [11]) was “Non-toxic” throughout. Moreover, the outcome in data set [10] was inactive.
